Test results as given in patent publication EP1209147A1, “CARBOXYLIC ACID DERIVATIVES AND ADHESION MOLECULE INHIBITORS CONTAINING THE SAME AS THE ACTIVE INGREDIENT” (TORAY INDUSTRIES, INC., priority 1999, dated 2001).

Legend:
Auricular Edema Model = assay: Auricular edema model (IgE anti-DNP passive sensitization, DNFB induction); assay type: in vivo, BLAB/c mouse
Procedure: To each BLAB/c mouse (female, 7 weeks old, JAPAN CHARLES RIVER), mouse IgE anti-DNP antibody (5 mg/kg, SEIKAGAKU CORPORATION) was intravenously administered to passively sensitize the mouse. Twenty four hours later, 20 µl of 0.38% 2,4- dinitrofluorobenzene (DNFB, Aldrich) dissolved in acetone:olive oil (4:1) was applied to the auricle of the sensitized mouse to induce inflammation. The thickness of the auricle was measured until 24 hours after the induction with Digimatic Indicator (Mitutoyo) and the ear swelling rate was calculated according to the following equation: Ear Swelling Rate (%) = (A - B)/B x 100 [formula] • A: Thickness of right auricle at 24 hours after induction • B: Thickness of right auricle before induction
Twenty four hours after the induction, the auricle was cut off and fixed with formalin. After the fixation, continuous sections of the auricle were prepared and stained by Luna staining. The number of eosinophils in each section was counted and the total of them was defined as the number of eosinophils accumulated in the auricle.
Compound No. 140 used as the test compound was dissolved in physiological saline and the solution was intravenously administered totally 3 times, i.e., at the time of sensitization, at 8 hours and 24 hours after sensitization, at a dose of 400 mg/kg per each time. Further, to examine the effect of the compound when applied to the auricle, the compound was dissolved in ethanol, and the solution was applied to the auricle totally twice, i.e., at 8 hours after sensitization and at 1 hour before the induction, at a dose of 0.3 mg/ear. To the background group and the control group, physiological saline was intravenously administered and ethanol was applied, respectively. The experiment was carried out using 4 to 6 mice in each group. The results are shown in terms of mean ± standard error.
Twenty four hours after the induction, the auricle was cut off and fixed with formalin. After the fixation, continuous sections of the auricle were prepared and stained by Luna staining. The number of eosinophils in each section was counted. Compound No. 143 used as the test compound was dissolved in physiological saline and the solution was topically or systemically administered totally 3 times, i.e., at the time of sensitization, at 8 hours and 24 hours after sensitization. The experiment was carried out using 4 to 6 mice in each group. The results are shown in terms of mean ± standard error.

[1] = molecular target: VLA-4-IgG chimeric protein (Homo sapiens, UniProt P05556+P13612); assay: Inhibition of binding between CS-1 peptide and VLA-4-IgG chimeric protein; settings: binding of VLA-4-IgG chimeric protein to immobilized CS-1 peptide; compound preincubated 20 minutes; read-out: Inhibition Activity(IC50 : nM)
Procedure: The adhesion-inhibition activity of the compound of the present invention against VLA-4 may be examined by using an adhesion assay system in which the adhesion between VLA-4-expressing cells such as Ramos cells and Jurkat cells, and fibronectin or a fragment thereof, e.g., a peptide containing CS-1 sequence (Gly Pro Glu Ile Leu Asp Val Pro Ser Thr) (hereinafter referred to as "CS-1 peptide") immobilized on an immunoplate is measured. Alternatively, a binding assay system in which the binding of the VLA-4 protein to the fibronectin or a fragment thereof such as CS-1 peptide immobilized on an immunoplate is measured may be employed. In the present invention, the inhibition assay of the compound is preferably measured by a binding assay system which measures the binding between a chimeric protein of VLA-4 and immunoglobulin (VLA-4-IgG chimeric protein) and CS-1 peptide (Japanese patent application No. H9-234544), although the method of measuring the inhibition activity is not restricted to this method. The term "VLA-4-IgG chimeric protein" herein means the heterodimer composite molecule in which a chimeric protein between α4 of VLA-4 and immunoglobulin (hereinafter referred to as "VLAα4·IgG chimeric protein), and a chimeric protein between β1 of VLA-4 and immunoglobulin (hereinafter referred to as "VLAβ1·IgG chimeric protein) are associated. As the immunoglobulin, although heavy chain or light chain of IgG, IgM or the like may be employed, in the present invention, IgG1 heavy chain is used. When testing the inhibition activity of the compound, it is preferred to preliminarily mix the VLA-4-IgG chimeric protein and the test compound.
Effects of Compounds for Inhibition of Binding Between CS-1 Peptide and VLA-4-IgG
A conjugate between a peptide (Gys Leu His Gly Pro Glu Ile Leu Asp Val Pro Ser Thr) containing CS-1 sequence and rabbit IgG (Sigma) was prepared by the reported method (Humphries, M.J. et al. J. Biol.Chem., 262, 6886-6892 (1987)). The obtained conjugate was diluted with phosphate buffer (hereinafter referred to as "PBS(-)", NISSUI) and the resulting solution was placed in wells of a 96-well immunoplate (NUNC) in an amount of 100 µl/well, followed by leaving the solution to stand at 4°C for 16 hours to immobilize the conjugate.
Then each well was washed twice with PBS(-), and a PBS solution containing 1% BSA heat-treated at 80°C for 10 minutes was placed in each well in an amount of 300 µl/well. The immunoplate was left to stand at 4°C for 3 hours, and then the solution in each well was removed by aspiration.
After preliminarily allowing each compound to react with VLA-4-IgG chimeric protein (100 µl) at room temperature for 20 minutes, the resulting solution was allowed to react with CS-1 peptide in each well at 30°C for 3 hours. Thereafter, non-bound VLA-4-IgG chimeric protein was removed by aspiration and each well was washed twice with 0.1% BSA-containing TBS buffer (150 mM NaCl,25 mM Tris-HCI, 1 mM MnCl2 pH 7.4). To the bound VLA-4-IgG chimeric protein, biotin-labeled anti-human IgG antibody (Vector) as an primary antibody was added, and then avidin-labeled horse radish peroxidase (Sigma) as a secondary antibody was added, and the reaction was allowed to occur. After the reaction, o-phenylenediamine as a substrate was added to color the solution, and the absorbance at 490 nm was measured. From the absorbance, the binding-inhibition activity of each test compound was determined.

Sequence of VLA-4-IgG chimeric protein (P13612 with tags, fused parts or gaps limits assumed): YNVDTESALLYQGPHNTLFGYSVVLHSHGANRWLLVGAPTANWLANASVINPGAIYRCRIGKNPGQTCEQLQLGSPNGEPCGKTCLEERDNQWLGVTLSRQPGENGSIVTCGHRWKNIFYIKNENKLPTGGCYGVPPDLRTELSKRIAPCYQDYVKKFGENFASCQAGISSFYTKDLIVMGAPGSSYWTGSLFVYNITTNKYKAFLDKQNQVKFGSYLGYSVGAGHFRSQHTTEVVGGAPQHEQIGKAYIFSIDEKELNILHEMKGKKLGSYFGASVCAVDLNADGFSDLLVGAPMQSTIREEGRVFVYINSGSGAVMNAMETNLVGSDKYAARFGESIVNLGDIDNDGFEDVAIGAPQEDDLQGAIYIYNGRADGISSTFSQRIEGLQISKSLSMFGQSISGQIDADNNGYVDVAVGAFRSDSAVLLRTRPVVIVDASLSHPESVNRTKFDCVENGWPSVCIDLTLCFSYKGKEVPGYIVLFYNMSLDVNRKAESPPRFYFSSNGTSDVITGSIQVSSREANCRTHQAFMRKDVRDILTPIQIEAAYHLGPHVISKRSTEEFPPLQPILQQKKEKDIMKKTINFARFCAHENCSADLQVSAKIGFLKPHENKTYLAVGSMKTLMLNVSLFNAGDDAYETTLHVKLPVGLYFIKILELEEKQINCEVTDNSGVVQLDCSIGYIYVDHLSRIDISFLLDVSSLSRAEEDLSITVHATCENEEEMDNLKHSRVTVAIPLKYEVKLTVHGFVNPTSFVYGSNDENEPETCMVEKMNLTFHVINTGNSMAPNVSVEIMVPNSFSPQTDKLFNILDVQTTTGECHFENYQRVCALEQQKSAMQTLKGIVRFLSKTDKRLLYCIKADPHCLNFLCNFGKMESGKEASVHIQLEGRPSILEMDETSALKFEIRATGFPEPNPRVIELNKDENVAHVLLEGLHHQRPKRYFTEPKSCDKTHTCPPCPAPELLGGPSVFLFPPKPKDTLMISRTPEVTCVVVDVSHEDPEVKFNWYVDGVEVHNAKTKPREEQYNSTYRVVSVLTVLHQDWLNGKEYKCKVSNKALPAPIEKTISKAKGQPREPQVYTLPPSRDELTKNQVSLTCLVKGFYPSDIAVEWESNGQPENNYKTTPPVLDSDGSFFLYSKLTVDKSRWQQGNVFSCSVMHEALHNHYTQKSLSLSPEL
Sequence of VLA-4-IgG chimeric protein (P05556 with tags, fused parts or gaps limits assumed): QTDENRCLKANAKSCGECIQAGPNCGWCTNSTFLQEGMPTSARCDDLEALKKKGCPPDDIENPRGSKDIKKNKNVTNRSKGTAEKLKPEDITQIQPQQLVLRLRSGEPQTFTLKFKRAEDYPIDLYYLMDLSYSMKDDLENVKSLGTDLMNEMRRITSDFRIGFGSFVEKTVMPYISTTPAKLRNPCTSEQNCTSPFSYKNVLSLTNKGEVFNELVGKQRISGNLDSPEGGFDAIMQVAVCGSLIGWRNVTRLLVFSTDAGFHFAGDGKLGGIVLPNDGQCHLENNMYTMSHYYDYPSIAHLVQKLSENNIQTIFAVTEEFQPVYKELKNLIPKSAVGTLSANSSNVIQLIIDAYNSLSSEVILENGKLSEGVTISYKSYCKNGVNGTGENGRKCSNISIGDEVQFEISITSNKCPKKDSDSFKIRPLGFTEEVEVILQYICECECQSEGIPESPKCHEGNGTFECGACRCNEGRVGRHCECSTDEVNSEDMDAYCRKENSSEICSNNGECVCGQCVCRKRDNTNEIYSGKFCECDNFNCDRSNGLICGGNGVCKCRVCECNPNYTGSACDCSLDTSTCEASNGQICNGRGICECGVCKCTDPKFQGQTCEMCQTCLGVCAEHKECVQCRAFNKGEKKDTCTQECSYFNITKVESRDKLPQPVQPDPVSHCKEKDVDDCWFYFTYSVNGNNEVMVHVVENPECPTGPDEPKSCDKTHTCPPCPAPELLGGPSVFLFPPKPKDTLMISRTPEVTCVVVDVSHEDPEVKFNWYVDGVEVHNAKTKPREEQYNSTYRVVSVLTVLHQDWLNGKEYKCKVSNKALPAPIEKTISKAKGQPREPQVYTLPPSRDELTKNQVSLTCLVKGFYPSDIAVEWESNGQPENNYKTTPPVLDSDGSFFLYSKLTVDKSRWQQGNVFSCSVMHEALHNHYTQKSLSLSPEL

CC(C)(C)CC(=O)N[C@@H](CSSC[C@H](NC(=O)CC(C)(C)C)C(=O)O)C(=O)O [Example 140, 3-((2(R)-carboxy-2(R)-(3,3-dimethylbutanoylamino)ethyl)disulfanyl)-2(R)-(3,3-dimethylbutanoylamino)propionic acid]
swelling of ear induced by application of the antigen (Auricular Edema Model; Compound No. 140: 400 mg/kg intravenously 3 times or 0.3 mg/ear applied to auricle): inhibited | accumulation of eosinophils to auricle induced by application of the antigen (Auricular Edema Model; Compound No. 140: 400 mg/kg intravenously 3 times or 0.3 mg/ear applied to auricle, Fig. 1, 400 mg/kg): inhibits | Ear Swelling Rate (%) (Auricular Edema Model; applied to auricle, 0.3 mg/ear, twice, 24 hours after induction): 26.12% | Inhibition Rate (%) (Auricular Edema Model; swelling of ear, applied to auricle, 0.3 mg/ear, twice): 40.3% | IC50 [1]: 1800 nM
